Measured values published in the NIST ThermoML archive (doi:10.1016/j.fluid.2007.08.010).

Assay: xn = mol fraction of the nth substance listed
Conditions: Liquid, Falling or rolling sphere viscometry

CCCCCCCCCCCCCC [tetradecane] + c1ccccc1
viscosity [mPa·s]
Conditions | 690 kPa | 5000 kPa | 10000 kPa | 20000 kPa | 30000 kPa | 40000 kPa | 50000 kPa | 60000 kPa
313.2 K, x2 = 0.179 | 1.393 | 1.461 | 1.538 | 1.695 | 1.86 | 2.036 | 2.224 | 2.434
313.2 K, x2 = 0.436 | 1.103 | 1.159 | 1.223 | 1.347 | 1.473 | 1.6 | 1.729 | 1.866
313.2 K, x2 = 0.602 | 0.905 | 0.955 | 1.011 | 1.118 | 1.225 | 1.329 | 1.432 | 1.535
313.2 K, x2 = 0.798 | 0.679 | 0.712 | 0.753 | 0.835 | 0.916 | 1 | 1.081 | 1.16
333.2 K, x2 = 0.179 | 1.045 | 1.098 | 1.157 | 1.273 | 1.389 | 1.515 | 1.657 | 1.846
333.2 K, x2 = 0.436 | 0.838 | 0.884 | 0.935 | 1.037 | 1.135 | 1.228 | 1.319 | 1.421
333.2 K, x2 = 0.602 | 0.688 | 0.728 | 0.775 | 0.862 | 0.946 | 1.032 | 1.115 | 1.216
333.2 K, x2 = 0.798 | 0.528 | 0.557 | 0.592 | 0.661 | 0.73 | 0.797 | 0.863 | 0.927
353.2 K, x2 = 0.179 | 0.819 | 0.855 | 0.904 | 0.996 | 1.08 | 1.168 | 1.278 | 1.391
353.2 K, x2 = 0.436 | 0.614 | 0.662 | 0.705 | 0.793 | 0.883 | 0.956 | 1.032 | 1.116
353.2 K, x2 = 0.602 | 0.537 | 0.566 | 0.601 | 0.668 | 0.739 | 0.809 | 0.878 | 0.959
353.2 K, x2 = 0.798 | 0.421 | 0.443 | 0.469 | 0.523 | 0.578 | 0.634 | 0.69 | 0.745
373.2 K, x2 = 0.179 | 0.596 | 0.635 | 0.678 | 0.765 | 0.849 | 0.926 | 1.001 | 1.07
373.2 K, x2 = 0.436 | 0.485 | 0.515 | 0.549 | 0.62 | 0.688 | 0.753 | 0.819 | 0.879
373.2 K, x2 = 0.602 | 0.43 | 0.452 | 0.477 | 0.533 | 0.59 | 0.646 | 0.704 | 0.761
373.2 K, x2 = 0.798 | 0.356 | 0.371 | 0.389 | 0.427 | 0.467 | 0.509 | 0.553 | 0.598
393.2 K, x2 = 0.179 | 0.466 | 0.495 | 0.531 | 0.601 | 0.67 | 0.738 | 0.804 | 0.868
393.2 K, x2 = 0.436 | 0.394 | 0.419 | 0.445 | 0.496 | 0.554 | 0.61 | 0.662 | 0.717
393.2 K, x2 = 0.602 | 0.347 | 0.368 | 0.39 | 0.436 | 0.479 | 0.524 | 0.565 | 0.604
393.2 K, x2 = 0.798 | 0.307 | 0.32 | 0.336 | 0.367 | 0.398 | 0.432 | 0.466 | 0.499
